Experimental data as given in ChEMBL document CHEMBL2034935, “Discovery of a Novel Series of CRTH2 (DP2) Receptor Antagonists Devoid of Carboxylic Acids” (ACS Med Chem Lett, 2011).

Tests used:
Cytochrome P450 2C9 = Cytochrome P450 2C9 (Homo sapiens, UniProt P11712); assay: Inhibition of human recombinant CYP2C9 incubated for 15 mins prior to substrate addition measured after 30 mins by spectrophotometry; format: ADME
[1] = target: T1, Prostaglandin D2 receptor 2 (Homo sapiens, UniProt Q9Y5Y4); assay: Displacement of [3HPGD2 from human CRTH2 receptor expressed in CHO cell membrane after 90 mins by scintillation proximity assay; format: cell membranes
T1 sequence (Q9Y5Y4 whole entry): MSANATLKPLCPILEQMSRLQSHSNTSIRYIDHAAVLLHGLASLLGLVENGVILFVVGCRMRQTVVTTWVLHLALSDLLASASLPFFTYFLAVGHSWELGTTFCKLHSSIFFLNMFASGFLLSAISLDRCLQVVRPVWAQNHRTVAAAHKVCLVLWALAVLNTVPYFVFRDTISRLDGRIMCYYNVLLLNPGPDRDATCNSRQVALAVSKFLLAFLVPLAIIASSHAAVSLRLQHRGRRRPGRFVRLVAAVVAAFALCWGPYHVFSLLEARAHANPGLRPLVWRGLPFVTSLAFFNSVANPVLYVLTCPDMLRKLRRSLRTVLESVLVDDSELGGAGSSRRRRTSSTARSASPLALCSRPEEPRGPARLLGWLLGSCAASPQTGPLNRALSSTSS

[2] = Intrinsic clearance in rat liver microsomes assessed per mg protein at 1 uM up to 45 mins by LC/MS analysis; format: ADME, Microsome; conditions: read-out: CLH
Cytochrome P450 2B6 = target: T2, Cytochrome P450 2B6 (Homo sapiens, UniProt P20813); assay: Inhibition of human recombinant CYP2B6 incubated for 15 mins prior to substrate addition measured after 30 mins by spectrophotometry; format: ADME
T2 sequence (P20813 whole entry): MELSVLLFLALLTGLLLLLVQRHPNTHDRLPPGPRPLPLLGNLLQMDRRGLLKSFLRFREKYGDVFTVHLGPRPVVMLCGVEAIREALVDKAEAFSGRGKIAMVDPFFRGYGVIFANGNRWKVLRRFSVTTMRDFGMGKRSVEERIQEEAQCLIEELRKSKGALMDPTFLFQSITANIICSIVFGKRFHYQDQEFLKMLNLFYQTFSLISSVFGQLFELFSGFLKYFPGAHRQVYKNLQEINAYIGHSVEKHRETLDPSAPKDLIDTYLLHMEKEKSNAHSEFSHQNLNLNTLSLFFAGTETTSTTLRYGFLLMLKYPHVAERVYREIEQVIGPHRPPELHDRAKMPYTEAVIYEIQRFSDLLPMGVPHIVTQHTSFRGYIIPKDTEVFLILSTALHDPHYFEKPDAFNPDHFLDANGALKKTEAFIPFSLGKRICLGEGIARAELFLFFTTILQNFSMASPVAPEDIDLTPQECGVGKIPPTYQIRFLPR

Cytochrome P450 2C19 = Cytochrome P450 2C19 (Homo sapiens, UniProt P33261); assay: Inhibition of human recombinant CYP2C19 incubated for 15 mins prior to substrate addition measured after 30 mins by spectrophotometry; format: ADME
Chain of Cytochrome P450 2C19 (P33261 whole entry): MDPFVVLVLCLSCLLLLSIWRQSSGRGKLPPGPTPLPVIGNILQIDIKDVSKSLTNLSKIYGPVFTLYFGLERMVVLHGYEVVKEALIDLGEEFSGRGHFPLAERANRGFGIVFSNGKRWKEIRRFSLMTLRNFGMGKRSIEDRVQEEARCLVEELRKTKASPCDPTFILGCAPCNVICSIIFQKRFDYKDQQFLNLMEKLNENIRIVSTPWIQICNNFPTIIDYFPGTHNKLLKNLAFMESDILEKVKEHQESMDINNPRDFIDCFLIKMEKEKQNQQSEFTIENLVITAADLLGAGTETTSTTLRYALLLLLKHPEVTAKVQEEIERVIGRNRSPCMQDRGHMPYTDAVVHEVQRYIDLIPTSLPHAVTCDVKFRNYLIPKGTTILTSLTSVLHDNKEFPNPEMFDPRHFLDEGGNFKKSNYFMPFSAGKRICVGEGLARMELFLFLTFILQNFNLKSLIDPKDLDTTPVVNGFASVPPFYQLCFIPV

Cytochrome P450 2D6 = Cytochrome P450 2D6 (Homo sapiens, UniProt P10635); assay: Inhibition of human recombinant CYP2D6 incubated for 15 mins prior to substrate addition measured after 30 mins by spectrophotometry; format: ADME
Chain of Cytochrome P450 2D6 (P10635 whole entry): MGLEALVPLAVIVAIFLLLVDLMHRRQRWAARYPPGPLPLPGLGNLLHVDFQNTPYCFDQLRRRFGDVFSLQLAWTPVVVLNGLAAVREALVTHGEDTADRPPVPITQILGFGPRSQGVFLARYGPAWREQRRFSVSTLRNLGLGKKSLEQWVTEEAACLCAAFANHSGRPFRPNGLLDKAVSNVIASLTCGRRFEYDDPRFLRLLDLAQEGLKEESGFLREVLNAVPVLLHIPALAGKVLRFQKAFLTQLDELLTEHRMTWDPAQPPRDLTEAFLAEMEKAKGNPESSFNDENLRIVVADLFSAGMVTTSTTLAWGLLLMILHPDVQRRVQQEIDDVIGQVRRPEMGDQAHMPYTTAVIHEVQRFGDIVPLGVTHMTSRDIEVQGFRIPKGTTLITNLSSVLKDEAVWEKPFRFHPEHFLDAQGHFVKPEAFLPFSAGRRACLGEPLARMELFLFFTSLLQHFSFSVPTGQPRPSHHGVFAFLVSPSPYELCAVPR

Cytochrome P450 3A4 = Cytochrome P450 3A4 (Homo sapiens, UniProt P08684); assay: Inhibition of human recombinant CYP3A4 incubated for 15 mins prior to substrate addition measured after 30 mins by spectrophotometry; format: ADME
Chain of Cytochrome P450 3A4 (P08684 whole entry): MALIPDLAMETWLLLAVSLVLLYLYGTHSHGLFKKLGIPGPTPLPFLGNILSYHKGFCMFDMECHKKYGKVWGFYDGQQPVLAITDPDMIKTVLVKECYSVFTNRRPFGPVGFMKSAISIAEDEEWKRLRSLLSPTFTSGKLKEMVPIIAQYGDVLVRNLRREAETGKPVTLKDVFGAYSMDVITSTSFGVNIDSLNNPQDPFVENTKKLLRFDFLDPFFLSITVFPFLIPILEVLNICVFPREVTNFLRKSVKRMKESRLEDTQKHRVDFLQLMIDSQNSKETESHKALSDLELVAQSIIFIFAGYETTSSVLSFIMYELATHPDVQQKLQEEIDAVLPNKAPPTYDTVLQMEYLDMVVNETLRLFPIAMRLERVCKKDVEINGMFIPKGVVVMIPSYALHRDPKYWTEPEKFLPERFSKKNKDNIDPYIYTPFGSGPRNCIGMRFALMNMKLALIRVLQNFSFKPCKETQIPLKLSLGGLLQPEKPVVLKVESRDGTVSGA

Cytochrome P450 1A2 = target: T3, Cytochrome P450 1A2 (Homo sapiens, UniProt P05177); assay: Inhibition of human recombinant CYP1A2 incubated for 15 mins prior to substrate addition measured after 30 mins by spectrophotometry; format: ADME
T3 sequence (P05177 whole entry): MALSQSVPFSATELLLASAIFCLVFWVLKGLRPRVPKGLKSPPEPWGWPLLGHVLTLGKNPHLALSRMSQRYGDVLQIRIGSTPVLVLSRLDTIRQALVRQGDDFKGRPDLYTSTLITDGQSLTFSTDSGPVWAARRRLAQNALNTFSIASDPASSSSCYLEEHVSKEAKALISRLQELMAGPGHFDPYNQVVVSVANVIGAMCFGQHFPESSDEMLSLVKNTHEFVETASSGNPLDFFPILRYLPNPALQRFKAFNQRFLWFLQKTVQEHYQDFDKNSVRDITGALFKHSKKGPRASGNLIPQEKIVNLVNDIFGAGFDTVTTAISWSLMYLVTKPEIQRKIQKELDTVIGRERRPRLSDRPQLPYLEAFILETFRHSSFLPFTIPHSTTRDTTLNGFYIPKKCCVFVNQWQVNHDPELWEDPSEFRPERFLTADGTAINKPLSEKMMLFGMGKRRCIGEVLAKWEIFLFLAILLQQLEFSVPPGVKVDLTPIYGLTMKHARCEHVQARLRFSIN

Cytochrome P450 2C8 = target: T4, Cytochrome P450 2C8 (Homo sapiens, UniProt P10632); assay: Inhibition of human recombinant CYP2C8 incubated for 15 mins prior to substrate addition measured after 30 mins by spectrophotometry; format: ADME
T4 sequence (P10632 whole entry): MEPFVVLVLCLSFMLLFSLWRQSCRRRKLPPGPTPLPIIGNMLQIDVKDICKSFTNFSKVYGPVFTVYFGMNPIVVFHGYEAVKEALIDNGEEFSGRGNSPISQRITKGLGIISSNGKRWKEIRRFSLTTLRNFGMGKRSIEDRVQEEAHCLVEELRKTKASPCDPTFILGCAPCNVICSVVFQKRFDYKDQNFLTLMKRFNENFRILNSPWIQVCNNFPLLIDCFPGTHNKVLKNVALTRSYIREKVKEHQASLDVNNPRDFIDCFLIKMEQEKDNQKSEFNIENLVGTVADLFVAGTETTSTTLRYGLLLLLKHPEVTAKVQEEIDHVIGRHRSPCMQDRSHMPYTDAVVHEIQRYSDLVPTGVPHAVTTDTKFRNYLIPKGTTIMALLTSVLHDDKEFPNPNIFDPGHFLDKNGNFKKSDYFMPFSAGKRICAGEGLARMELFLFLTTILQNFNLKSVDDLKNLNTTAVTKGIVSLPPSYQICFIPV

[3] = Intrinsic clearance in human liver microsomes assessed per mg protein at 1 uM up to 45 mins by LC/MS analysis; format: ADME, Microsome; conditions: read-out: CLH
[4] = target: T5, Prostaglandin D2 receptor 2 (Homo sapiens) (UniProt Q9Y5Y4); assay: Antagonist activity at human CRTH2 receptor expressed in CHO cell membrane assessed as inhibition of PGD2-induced [35S]GTPgammaS binding at 2 uM after 30 mins by microbeta scintillation counting relative to control; format: functional, cell membranes
T5 sequence (whole entry): T1 sequence (Q9Y5Y4 whole entry)

[5] = Half life in C57BL/6 mouse at 1 mg/kg, iv; format: ADME, organism-based; set-up: dose 1 mg/kg, route intravenous; conditions: in vivo
[6] = Apparent permeability across human Caco2 cells at 1 uM after 2 hrs by LC/MS analysis; format: ADME, cell-based; conditions: Caco-2
[7] = target: T5, Prostaglandin D2 receptor 2 (Homo sapiens); assay: Agonist activity at human CRTH2 receptor expressed in CHO cell membrane assessed as induction of [35S]GTPgammaS binding at 20 uM after 30 mins by microbeta scintillation counting relative to PGD2; format: functional, cell membranes
[8] = Volume of distribution at steady state in C57BL/6 mouse at 1 mg/kg, iv and 5 mg/kg, po; format: ADME, organism-based; conditions: in vivo, read-out: Vdss
[9] = target: T1, Prostaglandin D2 receptor 2; assay: Antagonist activity at human CRTH2 receptor expressed in CHO cell membrane assessed as inhibition of PGD2-induced [35S]GTPgammaS binding after 30 mins by microbeta scintillation counting; format: functional, cell membranes

Chain of Cytochrome P450 2C9 (P11712 whole entry): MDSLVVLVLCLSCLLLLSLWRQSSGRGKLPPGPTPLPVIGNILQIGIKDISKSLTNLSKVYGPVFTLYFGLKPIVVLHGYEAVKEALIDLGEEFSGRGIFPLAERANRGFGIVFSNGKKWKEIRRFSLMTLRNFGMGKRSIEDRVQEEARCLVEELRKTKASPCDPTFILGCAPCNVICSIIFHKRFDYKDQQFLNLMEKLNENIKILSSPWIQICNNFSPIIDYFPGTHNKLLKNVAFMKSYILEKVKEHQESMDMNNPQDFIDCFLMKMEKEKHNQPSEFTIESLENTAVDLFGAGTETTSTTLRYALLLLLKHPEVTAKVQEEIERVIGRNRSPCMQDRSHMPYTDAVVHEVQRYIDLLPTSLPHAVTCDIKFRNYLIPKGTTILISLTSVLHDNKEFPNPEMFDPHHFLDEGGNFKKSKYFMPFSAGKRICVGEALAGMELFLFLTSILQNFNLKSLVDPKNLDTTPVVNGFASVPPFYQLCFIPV

CCC(=O)N(Cc1ccc(OC(F)(F)F)cc1)c1cc(F)cc(-c2nnn[nH]2)c1
IC50 (Cytochrome P450 2C9): 0.2 µM | Ki [1]: 0.0069 µM | microsomal CLint at 1 µM [2]: 12 µL/min/mg | IC50 (Cytochrome P450 2B6): > 10 µM | IC50 (Cytochrome P450 2C19): 0.051 µM | IC50 (Cytochrome P450 2D6): > 10 µM | IC50 (Cytochrome P450 3A4): > 10 µM | IC50 (Cytochrome P450 1A2): > 10 µM | IC50 (Cytochrome P450 2C8): 0.043 µM | microsomal CLint at 1 µM [3]: < 10 µL/min/mg

CCC(=O)N(Cc1ccc(C(F)(F)F)cc1)c1cc(F)cc(-c2nnn[nH]2)c1
IC50 (Cytochrome P450 2C9): 0.28 µM | inhibition [4]: 105% | Ki [1]: 0.0057 µM | half-life [5]: 1.4 h | microsomal CLint at 1 µM [2]: < 10 µL/min/mg | IC50 (Cytochrome P450 2B6): > 10 µM | Papp at 2 h, 1 µM [6]: 3 ×10⁻⁶ cm/s | IC50 (Cytochrome P450 2C19): 0.038 µM | IC50 (Cytochrome P450 2D6): > 10 µM | IC50 (Cytochrome P450 3A4): > 10 µM | IC50 (Cytochrome P450 1A2): > 10 µM | IC50 (Cytochrome P450 2C8): 0.086 µM | Emax [7]: -8% | Vd [8]: 0.9 L/kg | IC50 [9]: 0.037 µM | microsomal CLint at 1 µM [3]: < 10 µL/min/mg

CCCCC(=O)N(Cc1ccc(C(F)(F)F)cc1)c1cc(F)cc(-c2nnn[nH]2)c1
Ki [1]: 0.0024 µM | IC50 (Cytochrome P450 2B6): > 10 µM | IC50 (Cytochrome P450 2D6): > 10 µM | IC50 (Cytochrome P450 3A4): > 10 µM | IC50 (Cytochrome P450 1A2): > 10 µM

CCCCC(=O)N(Cc1ccc(OC(F)(F)F)cc1)c1cc(Cl)cc(-c2nnn[nH]2)c1
inhibition [4]: 112% | Ki [1]: 0.019 µM | IC50 (Cytochrome P450 2B6): > 10 µM | IC50 (Cytochrome P450 2D6): > 10 µM | IC50 (Cytochrome P450 3A4): > 10 µM | IC50 (Cytochrome P450 1A2): > 10 µM | Emax [7]: -10% | IC50 [9]: 0.02 µM

CCC(=O)N(Cc1cccc(C(F)(F)F)c1)c1cccc(-c2nnn[nH]2)c1
Ki [1]: 0.22 µM | IC50 (Cytochrome P450 2B6): > 10 µM | IC50 (Cytochrome P450 2D6): > 10 µM | IC50 (Cytochrome P450 3A4): > 10 µM | IC50 (Cytochrome P450 1A2): > 10 µM

CCCCC(=O)N(Cc1ccc(OC(F)(F)F)cc1)c1cc(F)cc(-c2nnn[nH]2)c1
Ki [1]: 0.0077 µM | IC50 (Cytochrome P450 2B6): > 10 µM | IC50 (Cytochrome P450 2D6): > 10 µM | IC50 (Cytochrome P450 3A4): > 10 µM | IC50 (Cytochrome P450 1A2): > 10 µM

CCCCC(=O)N(Cc1cccc(OC(F)(F)F)c1)c1cc(F)cc(-c2nnn[nH]2)c1
Ki [1]: 0.0045 µM | IC50 (Cytochrome P450 2B6): > 10 µM | IC50 (Cytochrome P450 2D6): > 10 µM | IC50 (Cytochrome P450 3A4): > 10 µM | IC50 (Cytochrome P450 1A2): > 10 µM

CCC(=O)N(Cc1ccc(C(F)(F)F)cc1)c1cccc(-c2nnn[nH]2)c1
Ki [1]: 0.11 µM | IC50 (Cytochrome P450 2B6): > 10 µM | IC50 (Cytochrome P450 2D6): > 10 µM | IC50 (Cytochrome P450 3A4): > 10 µM | IC50 (Cytochrome P450 1A2): > 10 µM
